In US8946273B2, “S-Triazolyl alpha-mercapto acetanilides as inhibitors of HIV reverse transcriptase” (priority 2011, dated 2015) one finds EC50 and IC50 data, which are given here for 15 compounds.

The test system of one experiment is wild type HIV-1. The experiment in a line: microbe, parasite or virus in culture. Format: cell-based, human immunodeficiency virus type 1 (HIV-1). Particulars: Human immunodeficiency virus 1, Hela-JC53, read-out: EC50 WT.
The target of experiment [1] is T1, wild-type HIV reverse transcriptase (Human immunodeficiency virus type 1 group M subtype B, UniProt P04585).
T1 construct: wild-type and four mutant HIV reverse transcriptases
The experiment in a line: Activity on wild type reverse transcriptase (Table 1 IC50 WT). Format: biochemical. On the procedure:
Using similar methods as described above, 2-[5-bromo-4-(4-cyclopropylnaphthalen-1-yl)-4H-[1,2,4]triazol-3-ylsulfanyl]-N-(2-methyl-4-sulfamoylphenyeacetamide and 2-[5-bromo-4-(4-ethylnaphthalen-1-yl)-4H-[1,2,4]triazol-3-ylsulfanyl]-N-(2-chloro-4-sulfamoylphenyl)-acetamide were synthesized, as were the N-4-carbamyl analog, 2-[5-bromo-4-(4-ethyl-naphthalen-1-yl)-4H-[1,2,4]triazol-3-ylsulfanyl]-N-(2-chloro-4-carbamoylphenyl)-acetamide and the N-4-carboxyl analog. Each of the compounds was tested against a panel of mutant HIV reverse transcriptases, including 20 of the 22 of the mutants that are found in about 2% or more of the patient samples that are resistant to the most widely used non-nucleoside HIV-RT inhibitor efavirenz ((4S)-6-chloro-4-(cyclopropylethynyl)-1,4-dihydro-4-(trifluoromethyl)-2H-3,1-benzoxazin-2-one). […] In most cases both criteria were met. […] […].
Compounds of the invention were tested against the wild-type and four mutant HIV reverse transcriptases. The results are listed in Table 1 as EC50 (nM) and IC50 (nM). In the Table, A represents <50 nM, B is between 50 and 100 nM, and C is >100 nM. ND is not determined.

Experiment [2] has as its target mutant HIV reverse transcriptases (Human immunodeficiency virus type 1, UniProt P12497, Y775L, cells depend on it). Format: cell-based.
Experiment [3] has as its target mutant HIV reverse transcriptases (Human immunodeficiency virus type 1, UniProt P12497, Y768C, cells depend on it). It counts as cell-based.

With `CCOC(=O)C(C)NS(=O)(=O)c1ccc(NC(=O)CSc2nnc(C(F)F)n2-c2ccc(C)c3c2CCCC3)c(Cl)c1` (stereo not drawn) [compound 56], the figures for the concentration for a half-maximal effect (EC50) (in the experiment with wild type HIV-1; in experiment [2]; in experiment [3]) were under 50 nM, over 100 nM and under 50 nM, respectively. This compound yielded an IC50 in experiment [1] of under 50 nM.
Regarding `Cc1ccc(-n2c(SCC(=O)Nc3ccc(S(=O)(=O)NCCN4CCOCC4)cc3Cl)nnc2C(F)F)c2c1CCCC2` [compound 57], the EC50 in the experiment with wild type HIV-1 is under 50 nM; in experiment [2] it was 50 to 100 nM; in experiment [3], under 50 nM. Besides, the IC50 in experiment [1] is under 50 nM.
For `Cc1ccc(-n2c(SCC(=O)Nc3ccc(S(=O)(=O)NCCC(=O)O)cc3Cl)nnc2C(F)F)c2c1CCCC2` [compound 58], the EC50 in the experiment with wild type HIV-1 is 50 to 100 nM; in experiment [2], over 100 nM; in experiment [3], over 100 nM. Besides, the IC50 in experiment [1] was under 50 nM.
With `Cc1ccc(-n2c(SCC(=O)Nc3ccc(S(=O)(=O)NC(C)C(=O)O)cc3Cl)nnc2C(F)F)c2c1CCCC2` (stereo not drawn) [compound 59], the EC50 (with wild type HIV-1; in experiment [2]; in experiment [3]) was over 100 nM each time. Moreover, in experiment [1], the IC50 is under 50 nM.
For `Cc1ccc(-n2c(SCC(=O)Nc3ccc(S(=O)(=O)NC(C(=O)O)C(C)C)cc3Cl)nnc2C(F)F)c2c1CCCC2` (stereo not drawn) [compound 60], the EC50 (in the experiment with wild type HIV-1; in experiment [2]; in experiment [3]) was over 100 nM throughout. The compound further came in with a concentration for half-maximal inhibition (IC50) in experiment [1] of under 50 nM.
Regarding `NS(=O)(=O)c1ccc(NC(=O)CSc2nnc(Br)n2-c2ccc(F)c3ccccc23)c(Cl)c1` [compound 61], the EC50 (in the experiment with wild type HIV-1; in experiment [2]; in experiment [3]) was under 50 nM in each case. Moreover, the IC50 in experiment [1] was under 50 nM.
For `Cc1cc(S(N)(=O)=O)ccc1NC(=O)CSc1nnc(Br)n1-c1ccc(F)c2ccccc12` [compound 62], the EC50 in the experiment with wild type HIV-1 was under 50 nM; in experiment [2] it was over 100 nM; in experiment [3], under 50 nM. The compound further displayed an IC50 in experiment [1] of under 50 nM.
Turning to `Cc1ccc2c(C)cc(C)c(-n3c(SCC(=O)Nc4ccc(S(N)(=O)=O)cc4Cl)nnc3C(F)F)c2n1` [compound 63], the half-maximal effective concentration (EC50) (in the experiment on wild type HIV-1; in experiment [2]; in experiment [3]) was under 50 nM each time. The IC50 in experiment [1] is under 50 nM.
With `Cc1ccc2c(C)cc(C)c(-n3c(SCC(=O)Nc4ccc(S(N)(=O)=O)cc4C)nnc3C(F)F)c2n1` [compound 64], the EC50 (in the experiment on wild type HIV-1; in experiment [2]; in experiment [3]) was under 50 nM throughout. The IC50 in experiment [1] is under 50 nM.
As to `Cc1cc(S(N)(=O)=O)ccc1NC(=O)CSc1nnc(CF)n1-c1ccc(C)c2c1CCCC2` [compound 65], the EC50 was under 50 nM with wild type HIV-1, 50 to 100 nM in experiment [2] and under 50 nM in experiment [3]. The IC50 in experiment [1] was under 50 nM.
With `NS(=O)(=O)c1ccc(NC(=O)CSc2nncn2-c2ccc(C3CC3)c3ccccc23)c(Cl)c1` [compound 66], the EC50 was under 50 nM in the experiment on wild type HIV-1, over 100 nM in experiment [2] and under 50 nM in experiment [3]. In experiment [1], the IC50 is under 50 nM.
Regarding `CCc1ccc(-n2c(CF)nnc2SCC(=O)Nc2ccc(S(N)(=O)=O)cc2Cl)c2c1CCCC2` [compound 67], the EC50 (in the experiment on wild type HIV-1; in experiment [2]; in experiment [3]) was under 50 nM each time. Besides, the IC50 in experiment [1] is under 50 nM.
With `NS(=O)(=O)c1ccc(NC(=O)CSc2nnc(C(F)F)n2-c2ccc(C3CCCC3)c3ccccc23)c(Cl)c1` [compound 68], the EC50 in the experiment with wild type HIV-1 was under 50 nM; in experiment [2] it was over 100 nM; in experiment [3] it was under 50 nM. This compound gave an IC50 in experiment [1] of under 50 nM.
For `NS(=O)(=O)c1ccc(NC(=O)CSc2nnc(C(F)F)n2-c2ccc(C3CCC3)c3ccccc23)c(Cl)c1` [compound 69], the EC50 (in the experiment with wild type HIV-1; in experiment [2]; in experiment [3]) was under 50 nM in each case. The same compound showed an IC50 in experiment [1] of under 50 nM.
As for `CCc1ccc(-n2c(I)nnc2SCC(=O)Nc2ccc(S(N)(=O)=O)cc2Cl)c2ccccc12` [compound 70], the concentration for a half-maximal effect (EC50) (with wild type HIV-1; in experiment [2]; in experiment [3]) was under 50 nM throughout. Further, the IC50 in experiment [1] was under 50 nM.

For orientation: EC50 means the concentration that produces a half-maximal response. As a reminder, the IC50 is the concentration that gives 50% inhibition.
